Data from ChEMBL document CHEMBL3045439, “Isoforms of the heteropteran Nezara viridula ecdysone receptor: protein characterisation, RH5992 insecticide binding and homology modelling” (Pest Manag Sci, 2011).

Assays:
Type in all cases: protein-complex assay
Ecdysone receptor [1] = target: T1, Ecdysone receptor (Spodoptera frugiperda, UniProt Q8MWR1+Q8MWR2); test: Binding affinity to Spodoptera frugiperda (fall armyworm) EcR
T1 sequence (Q8MWR2 whole entry): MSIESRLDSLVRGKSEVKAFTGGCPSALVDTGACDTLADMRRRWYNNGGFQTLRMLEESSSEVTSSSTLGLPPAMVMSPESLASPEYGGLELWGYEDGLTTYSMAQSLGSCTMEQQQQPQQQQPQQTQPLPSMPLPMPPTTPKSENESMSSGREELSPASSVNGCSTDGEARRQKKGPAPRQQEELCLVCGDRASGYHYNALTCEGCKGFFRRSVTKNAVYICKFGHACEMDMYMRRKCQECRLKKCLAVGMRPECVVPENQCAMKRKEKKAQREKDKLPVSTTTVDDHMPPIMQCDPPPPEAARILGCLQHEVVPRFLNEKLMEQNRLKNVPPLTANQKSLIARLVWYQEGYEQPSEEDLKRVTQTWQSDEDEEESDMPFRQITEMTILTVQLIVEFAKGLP
T1 sequence (Q8MWR1 whole entry): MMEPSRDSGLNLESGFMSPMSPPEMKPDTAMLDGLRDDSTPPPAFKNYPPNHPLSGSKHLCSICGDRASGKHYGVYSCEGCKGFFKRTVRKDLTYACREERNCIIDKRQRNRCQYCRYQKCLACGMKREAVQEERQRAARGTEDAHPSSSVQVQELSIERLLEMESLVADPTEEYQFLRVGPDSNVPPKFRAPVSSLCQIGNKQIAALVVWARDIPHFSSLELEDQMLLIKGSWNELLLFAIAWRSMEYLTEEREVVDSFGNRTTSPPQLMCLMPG

Ecdysone receptor [2] = target: T2, Ecdysone receptor (Aedes aegypti, UniProt P49880+Q9GSG8); test: Binding affinity to Aedes aegypti EcR
T2 sequence (P49880 whole entry): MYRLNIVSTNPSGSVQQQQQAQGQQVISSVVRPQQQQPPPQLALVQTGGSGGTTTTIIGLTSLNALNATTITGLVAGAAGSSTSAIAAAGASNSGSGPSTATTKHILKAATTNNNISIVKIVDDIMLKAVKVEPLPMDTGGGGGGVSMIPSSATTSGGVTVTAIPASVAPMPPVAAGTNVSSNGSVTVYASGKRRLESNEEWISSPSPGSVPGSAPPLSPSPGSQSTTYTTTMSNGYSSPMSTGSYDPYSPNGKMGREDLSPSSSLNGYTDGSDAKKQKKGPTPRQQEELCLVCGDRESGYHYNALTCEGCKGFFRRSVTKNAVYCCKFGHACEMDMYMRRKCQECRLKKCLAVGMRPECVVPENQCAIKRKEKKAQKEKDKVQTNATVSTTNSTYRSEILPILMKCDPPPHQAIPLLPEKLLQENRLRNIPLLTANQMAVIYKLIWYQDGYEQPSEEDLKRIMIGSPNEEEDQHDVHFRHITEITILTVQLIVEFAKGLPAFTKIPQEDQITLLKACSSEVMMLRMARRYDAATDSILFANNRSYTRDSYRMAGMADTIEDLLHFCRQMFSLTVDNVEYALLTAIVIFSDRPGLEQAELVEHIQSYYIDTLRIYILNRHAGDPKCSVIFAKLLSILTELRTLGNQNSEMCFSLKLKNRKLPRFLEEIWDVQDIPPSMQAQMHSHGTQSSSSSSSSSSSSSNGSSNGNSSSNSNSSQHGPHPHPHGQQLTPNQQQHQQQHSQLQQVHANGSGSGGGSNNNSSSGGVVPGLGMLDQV
T2 sequence (Q9GSG8 whole entry): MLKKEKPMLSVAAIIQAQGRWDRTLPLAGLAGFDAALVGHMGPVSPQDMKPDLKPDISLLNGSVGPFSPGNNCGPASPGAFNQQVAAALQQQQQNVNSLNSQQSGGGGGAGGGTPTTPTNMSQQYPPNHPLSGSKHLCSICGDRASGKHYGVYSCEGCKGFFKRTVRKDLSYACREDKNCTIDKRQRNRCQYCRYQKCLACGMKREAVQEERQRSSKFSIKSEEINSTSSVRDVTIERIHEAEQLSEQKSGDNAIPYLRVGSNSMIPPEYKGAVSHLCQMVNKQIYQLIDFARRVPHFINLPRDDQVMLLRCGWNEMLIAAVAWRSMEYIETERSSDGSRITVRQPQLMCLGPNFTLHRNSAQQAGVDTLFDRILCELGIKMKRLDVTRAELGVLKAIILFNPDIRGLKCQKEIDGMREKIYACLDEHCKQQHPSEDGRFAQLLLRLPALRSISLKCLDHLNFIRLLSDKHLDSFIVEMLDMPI

Ecdysone receptor [3] = target: T3, Ecdysone receptor (Nezara viridula, UniProt E5L6Y0+E5L6Y1); test: Binding affinity to Nezara viridula EcR11
T3 sequence (E5L6Y1 whole entry): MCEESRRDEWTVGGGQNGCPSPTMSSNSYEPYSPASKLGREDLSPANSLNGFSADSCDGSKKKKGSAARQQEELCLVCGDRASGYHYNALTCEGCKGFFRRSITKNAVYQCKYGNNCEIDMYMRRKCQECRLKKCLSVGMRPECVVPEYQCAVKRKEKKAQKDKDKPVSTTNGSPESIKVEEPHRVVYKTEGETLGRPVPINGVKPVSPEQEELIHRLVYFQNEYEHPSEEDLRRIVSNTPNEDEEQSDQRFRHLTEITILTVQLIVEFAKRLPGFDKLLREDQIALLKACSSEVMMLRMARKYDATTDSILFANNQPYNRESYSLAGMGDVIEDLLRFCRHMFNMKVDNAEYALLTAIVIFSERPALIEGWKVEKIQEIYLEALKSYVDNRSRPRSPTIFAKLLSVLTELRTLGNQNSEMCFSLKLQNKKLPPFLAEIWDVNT
T3 sequence (E5L6Y0 whole entry): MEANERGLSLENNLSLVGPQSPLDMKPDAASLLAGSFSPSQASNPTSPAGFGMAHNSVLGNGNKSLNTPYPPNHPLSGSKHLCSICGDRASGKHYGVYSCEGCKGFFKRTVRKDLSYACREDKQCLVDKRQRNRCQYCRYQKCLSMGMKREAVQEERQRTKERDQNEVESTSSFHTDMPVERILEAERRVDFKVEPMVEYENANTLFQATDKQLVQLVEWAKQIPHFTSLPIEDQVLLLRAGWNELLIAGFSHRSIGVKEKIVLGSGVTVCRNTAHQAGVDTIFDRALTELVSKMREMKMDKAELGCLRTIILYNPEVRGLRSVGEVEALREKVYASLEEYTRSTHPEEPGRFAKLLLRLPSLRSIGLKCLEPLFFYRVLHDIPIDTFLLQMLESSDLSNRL

Ecdysone receptor [4] = target: T3, Ecdysone receptor; test: Binding affinity to Nezara viridula EcR10

Row | IC50 (Ecdysone receptor [1]) | SMILES | Ki (Ecdysone receptor [2]) | Ki (Ecdysone receptor [3]) | Ki (Ecdysone receptor [4])
1 | 0.166 µM | CC(C)(O)CC[C@@H](O)[C@](C)(O)[C@H]1CC[C@@]2(O)C3=CC(=O)[C@@H]4C[C@@H](O)[C@@H](O)C[C@]4(C)[C@H]3CC[C@]12C [20-HYDROXYECDYSONE] | – | – | –
2 | – | CCc1ccc(C(=O)NN(C(=O)c2cc(C)cc(C)c2)C(C)(C)C)cc1 [TEBUFENOZIDE] | 0.0251 µM | 25.1 µM | 20 µM
